Assay results as given in US8088819B2, “Derivatives of substituted 3-phenyl-1-(phenylthienyl)propan-1-ones and of 3-phenyl-1-(phenylfuranyl) propan-1-ones, preparation and use” (priority 2006, dated 2012).

Tests used:
[1] = system: MCP1 and MMP9 genes in human monocytes (THP1); test: Expression of MCP1 and MMP9 in human monocytes stimulated with PMA, quantitative RT-PCR; type: cell-based; conditions: 24 h
Procedure: The antiinflammatory effects of the compounds according to the invention were evaluated by measuring the secretion and expression of macrophages chemoattractant protein (MCP1) and of matrix metalloproteinase 9 (MMP9) by monocytes treated with the compounds according to the invention for 24 hours and stimulated with PMA (phorbol 12-myristate 13-acetate, which causes an inflammatory response of the cells). The more the amount of MCP1 secreted is reduced, the greater the inhibitory action of the compounds according to the invention on the inflammatory reaction. Similarly, the more the expression of the genes coding for MCP1 and MMP9 is inhibited, the greater the antiinflammatory effect of the compounds according to the invention.
The THP1 human monocyte line (obtained from ATCC) is cultivated in RPMI1640 medium with addition of 25 mM Hepes (Gibco; 42401-018), 1% glutamine (Gibco; 25030-24) 1% penicillin/streptomycin (Biochrom AG; A 2213) and 10% decomplemented fetal calf serum (FCS. Gibco; 10270-106).
The cells are seeded on 24-well plates (Primaria BD Falcon) at a density of 8.70·10^5 cells/well in the treatment medium (same composition as the culture medium but with 0.2% of decomplemented fetal calf serum) and in the presence of 5 ng/mL of phorbol 12-myristate 13-acetate (PMA) for inducing the inflammatory response.
The compounds according to the invention were tested at 0.1, 0.3 and/or at 1 μm, and dissolved in dimethylsulfoxide (DMSO, Fluka; 41640). The cells are treated for 24 h at 37° C., 5% CO2. The effect of the compound according to the invention is compared with the effect of DMSO alone.
After treatment, the total RNA is extracted from the cells using the NucleoSpin® 96 RNA kit (Macherey Nagel, Hoerdt, France) following the manufacturer's instructions.
1 μg of total RNA (quantified based on the reading of the UV spectrophotometer) was then reverse-transcribed to complementary DNA by reaction for 1 hour at 37° C. in a total volume of 30 μl containing buffer 1× (Invitrogen), 1.5 mM of DTT, 0.18 mM of dNTPs (Promega), 200 ng of pdN6 (Amersham), 30 U of RNase inhibitor (Promega) and 1 μl of MMLV-RT (Invitrogen).
The quantitative PCR experiments were carried out using the MyiQ Single-Color Real-Time PCR Detection System (Biorad, Marnes-la-Coquette, France) and were performed using the iQ SYBR Green Supermix kit following the supplier's recommendations, in 96-well plates, on 5 μl of diluted reverse-transcription reaction mixture with a hybridization temperature of 60° C. Primer pairs specific to the MCP1 and MMP9 genes under investigation were used:
The amount of fluorescence emitted is directly proportional to the amount of complementary DNA present at the start of the reaction and amplified during PCR. […] The relative expression levels of each target are thus determined using the efficacy curves obtained with the points in the range.
The levels of expression of the genes of interest were then normalized, […] relative to the level of expression of the reference gene 36B4 (whose specific primers are: sense primer: 5′-[…]-3′ (SEQ ID No. 19) and antisense primer: 5′-[…]-3′ (SEQ ID No. 20)). The induction factor, i.e. the ratio of the relative signal (induced by the compound according to the invention) to the mean of the relative values of the control group, was then calculated. […]

hPPARalpha = target: T1, hPPARalpha (Homo sapiens, UniProt Q07869); test: PPAR activation: Gal4-hPPARα chimera luciferase transactivation in COS-7 cells, Method 1; type: cell-based; conditions: COS-7, 24 h; for Emax: maximum percentage response relative to the reference phenofibric acid, read-out: hPPARalpha % max
T1 construct: expressed in transfected cells; host or cells: COS-7 (monkey kidney fibroblasts)
T1 sequence (Q07869 239-466 limits assumed): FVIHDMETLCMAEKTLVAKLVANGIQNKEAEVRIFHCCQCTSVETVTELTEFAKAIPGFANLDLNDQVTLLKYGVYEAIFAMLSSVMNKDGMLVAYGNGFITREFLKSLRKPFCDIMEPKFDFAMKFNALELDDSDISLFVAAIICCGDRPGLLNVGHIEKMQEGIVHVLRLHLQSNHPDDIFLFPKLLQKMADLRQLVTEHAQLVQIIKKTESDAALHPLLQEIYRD
In short: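 COS-7 cells transiently transfected with Gal4 DBD–human PPAR LBD (DEF domain) chimeras plus Gal4(RE)_TkpGL3 luciferase reporter (1/10 ratio). Compounds applied 24 h at 37 °C in serum-free medium at doses between 10^−5 and […]; luciferase read after lysis, EC50 derived.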

Row | Compound | expression of MCP1 in human monocytes ([1]; at 1 μm) | expression of MMP9 in human monocytes ([1]; at 1 μm) | EC50 (hPPARalpha) [nM] | Emax (hPPARalpha) [%] | expression of MCP1 in human monocytes ([1]; at 0.1 and 0.3 μm)
1 | CC(C)(Oc1ccc(CCC(=O)c2cc(-c3ccc(C(F)(F)F)cc3)cs2)c(Cl)c1Cl)C(=O)O [Compound 11, 2-(2,3-dichloro-4-(3-oxo-3-(4-(4-(trifluoromethyl)phenyl)thien-2-yl)propyl)phenoxy)-2-methylpropanoic acid] | significant decrease | significant decrease | 288 | 39 | –
2 | CC(C)(Oc1ccc(CCC(OCc2ccccc2)c2ccc(-c3ccc(C(F)(F)F)cc3)s2)c(Cl)c1Cl)C(=O)O (centres unmarked) [Compound 7, 2-(4-(3-(benzyloxy)-3-(5-(4-(trifluoromethyl)phenyl)thien-2-yl)propyl)-2,3-dichlorophenoxy)-2-methylpropanoic acid] | significant decrease | significant decrease | – | – | –
3 | CC(C)(Oc1ccc(CCC(O)c2ccc(-c3ccc(C(F)(F)F)cc3)s2)c(Cl)c1Cl)C(=O)O (centres unmarked) [Compound 4, 2-(2,3-dichloro-4-(3-hydroxy-3-(5-(4-(trifluoromethyl)phenyl)thien-2-yl)propyl)phenoxy)-2-methylpropanoic acid] | – | – | 125 | 50 | –
4 | CC(C)(Oc1ccc(CCC(=O)c2ccc(-c3ccc(C(F)(F)F)cc3)s2)c(Cl)c1Cl)C(=O)O [Compound 2, 2-(2,3-dichloro-4-(3-oxo-3-(5-(4-(trifluoromethyl)phenyl)thien-2-yl)propyl)phenoxy)-2-methylpropanoic acid] | – | – | 53 | 43 | significant decrease
